This passage reports 14-HDOHE levels/production and 12-HETE levels/production results from patent publication US20170158599A1, “COMPOSITIONS AND METHODS COMPRISING SALICYLATES AND POLYSALICYLATES” (Biocogent, LLC, priority 2014, published 2017).

This experiment relates to peripheral blood mononuclear cells (PBMC). Nature of the experiment: Lipid mediators of the resolution pathways in PBMC with PMA/A23187 stimulation. The format is cell-based. An excerpt: The next two sets of adjacent bars show a comparison of the effects of treatment with PMA plus A23187 in the presence of salicylic acid (on left of each group) and polysalicylic acid (on right of each group) in amounts of 1.6 micrograms per milliliter (μg/mL) and 8 micrograms per milliliter (μg/mL), respectively. […] The resultant SA derivative was evaluated at different doses on the synthesis of 8 intermediate lipids of the resolution pathways in PMBC with PMA/A23187 stimulation. PMBC cells were seeded and allowed to settle for 1 hour; the test compounds were then added and allowed to incubate for an additional hour. The inflammatory stimulus (PMA plus A23187) was added for one hour, and supernatants were collected and analyzed for lipid intermediates.

Consider `O=C(O)c1ccccc1O` [salicylic acid, 2-hydroxybenzoic acid], for which the 14-HDOHE levels/production entry (PMA plus A23187, 1.6 and 8 μg/mL (FIG. 1)) is “noticeable increase over the control”. Moreover, the 12-HETE levels/production result (PMA plus A23187, 1.6 and 8 μg/mL (FIG. 2)) is reported as “noticeable increase over the control”.
